{"source": "patent US20240207211A1", "about": "“COMPOSITION FOR PROMOTING BONE FORMATION OR TREATING BONE DISEASE BY ACTING ON OSTEOBLAST MITOCHONDRIA” (SEOUL NATIONAL UNIVERSITY R&DB FOUNDATION, priority 2021, published 2024)", "type_in_all_cases": "cell-based, mouse", "key": {"osteoblast mitochondria": {"tested_on": "osteoblast mitochondria", "experiment": "Osteoblast fluorescence imaging of mitochondrial morphology (fission, donut-shaped mitochondria)", "conditions": "osteoblasts, 5 days differentiation, siRNA 30 nM, plasmid 1 μg/mL, bongkrekic acid 40 μM; for formation of donut-shaped mitochondria (confocal images, FIGS. 1A to 1C) / mitochondrial fission (confocal images, FIGS. 1A to 1C): versus control; for mitochondrial fission (quantitative analysis, Zeiss Zen 3.1, FIGS. 1D and 1E) / number of donut-shaped mitochondria (quantitative analysis, FIGS. 1D and 1E): versus respective control", "experimental": "To confirm changes in the morphology of osteoblast mitochondria, transgenic mice were prepared to express green fluorescent protein (GFP) specifically in the mitochondrial matrix. Specifically, lgs1^CKI-mitoGFP/CKI-mitoGFP knock-in C57BL/6 female mice were provided by Jeremy Nathans (Johns Hopkins University School of Medicine, MD), Col1a1-Cre male mice were provided by the Korea Research Institute of Bioscience and Biotechnology, and Col1a1-Cre was prepared to be expressed in these mice using the 2.3 kb murine Col1a1 promoter. By mating the prepared C57BL/6 female transgenic mouse with the Col1a1-Cre male mouse, newborn transgenic mice (Col1a1-Cre; Igs1^CKI-mito-GFP/+) that conditionally express GFP only in the mitochondria of osteoblasts were prepared. All animal studies were approved by the Seoul National University Institutional Animal Care and Use Committees.\nThe skull cells of the prepared transgenic mice that express GFP conditionally only in the mitochondria were treated with 0.25% trypsin (Gibco) for 10 minutes, incubated in 2 mg/mL type 2 collagenase (Worthington) for 30 minutes, and in fresh type 2 collagenase for another 60 minutes. The cells separated from the bone tissue were collected by centrifugation at 1300 rpm for 3 minutes, and the cells were placed on serum and centrifuged to remove debris. To separate living osteoblasts that express GFP in mitochondria, they were stained with 7AAD (Bio-Legend) for 10 minutes (only dead cells were stained) and a flow cytometry technique (Fluorescence-activated cell sorting, FACS) was used.\nThe osteoblasts extracted in Example 1 were induced to be differentiated in a medium composed of alpha MEM (Minimum Essential Media, Hyclone) supplemented with 10% fetal bovine serum (Gibco) and 100 U/mL penicillin-streptomycin (Gibco) for 5 days. Specifically, the differentiation medium is composed of alpha MEM with 50 μg/mL ascorbic acid (Amreasco), 5 mM beta-glycerophosphate (Sigma), 10% fetal bovine serum (Gibco), and 100 U/mL penicillin-streptomycin (Gibco). Osteoblast differentiation was induced for 5 days.\nShort interfering RNA (siRNA) that inhibits the expression of the Opa1 (dynamin-like 120 kDa protein) gene, which induces mitochondrial fusion, and the Fis1 (Mitochondrial fission 1 protein) gene, which induces mitochondrial fission (siOpa1, siFis1, respectively) was transfected into 300,000 osteoblasts per 1 mL at 30 nM each at the same time as differentiation induction using Lipofectamine RNAiMAX Reagent (Invitrogen), and to increase mitochondrial fission, the pCMV-Fis1 plasmid (Korea Human Gene Bank) was transfected into 300,000 osteoblasts per mL at 1 μg/mL at the same time as differentiation induction using TransIT®-LT1 Transfection Reagent (Mirus) to overexpress the Fis1 gene. In addition, the osteoblasts prepared above were treated simultaneously with differentiation with Tris solution-based bongkrekic acid (Sigma, B6179, USA) at a concentration of 40 μM. As a control for the siRNA, osteoblasts were prepared by transfecting the control siRNA in substantially the same manner as the siRNA; as a control for the plasmid, osteoblasts were prepared by transfecting the pCMV-SPORT6 empty vector plasmid into which no gene was inserted in substantially the same manner as the pCMV-Fis1 plasmid; and as a control for the bongkrekic acid, osteoblasts treated with 0.01M Tris solution were prepared. The siRNAs were purchased from Bioneer, Korea and transfected using Lipofectamine RNAimax (Invitrogen, USA) according to the manufacturer's instructions, and specific information on the siRNAs is shown in Table 1 below.\nThe pCMV-Fis1 plasmid containing full-length mouse Fis1 cDNA (ID: mMU002771) was purchased from the Korea Human Gene Bank, and was transfected into osteoblasts using TransIT-LT1 transfection reagent (Mirus Bio, USA) according to the manufacturer's instructions. […]"}, "osteoblasts": {"tested_on": "osteoblasts", "experiment": "Alkaline phosphatase (ALP) staining of differentiation-induced osteoblasts", "conditions": "5 days differentiation, siRNA 30 nM, plasmid 1 μg/mL, bongkrekic acid 40 μM, versus respective control", "experimental": "(§1) The osteoblasts extracted in Example 1 were transfected with 30 nM of siOpa1, siFis1, and 1 μg/mL of pCMV-Fis1 plasmids, respectively, in substantially the same manner as in Example 2-1, and separate osteoblasts were treated with 40 μM bongkrekic acid, and additionally, the osteoblasts extracted in Example 1 were transfected with 30 nM siBax, which is an siRNA of Bax (Bcl-2-associated X), and 1 μg/mL pCMV-Bax plasmid (Korea Human Gene Bank, ID: mMU001857), respectively, and differentiation of the osteoblasts was induced for 5 days in a medium consisting of alpha MEM (Minimum Essential Media, Hyclone) supplemented with 10% fetal bovine serum (Gibco) and 100 U/mL of penicillin-streptomycin (Gibco) of Example 2-1. As a control for the siRNA, osteoblasts were prepared by transfecting the control siRNA of Example 2-1 in substantially the same manner as the siRNA; as a control for the plasmid, osteoblasts were prepared by transfecting the pCMV-SPORT6 empty vector plasmid into which no gene was inserted in substantially the same manner as the pCMV-Fis1 plasmid; and as a control for the bongkrekic acid, osteoblasts treated with 0.01M Tris solution were prepared.\nTo confirm the osteogenic activity of the osteoblasts differentiation-induced in Example 3-1, staining of alkaline phosphatase (ALP), an osteogenic marker, was performed and observed. Specifically, 1 mg of Naphthol AS-MX phosphate (Sigma) was dissolved in 100 μL of N,N-dimethylformamide (Sigma), then 2 mL of 0.1% Fast blue BB salt (Sigma) solution was added and ALP staining was performed at 37° C. for 30 minutes. Osteogenic activity was confirmed by the intensity of staining, and it was evaluated that the darker the staining, the higher the expression of ALP."}, "Alp1": {"tested_on": "Alp1", "experiment": "qRT-PCR of osteogenic marker Alp1 in osteoblasts", "conditions": "5 days differentiation, siRNA 30 nM, plasmid 1 μg/mL, bongkrekic acid 40 μM, normalized to 18S rRNA, versus respective control", "experimental": "as §1\n(§2) qRT-PCR was performed to evaluate the gene expression level of the osteoblasts that underwent ALP staining in Example 3-2. Total RNA was extracted from the cells using QIAzol Lysis Reagent (Qiagen, Germany) and RNeasy Mini Kit (Qiagen, Germany), and cDNA was prepared using PrimeScript RT Reagent Kit (Takara, Japan) according to the manufacturer's instructions. Quantitative RT-PCR was performed using TB Green Premix Ex Taq II (Takara, Japan) and StepOnePlus Real-Time PCR system (Applied Biosystems, USA). Relative gene expression was determined using standard 2(−ΔΔCt) calculations with normalization to 18S rRNA, and information on the primers used is specifically shown in Table 3 below."}, "Ibsp": {"tested_on": "Ibsp", "experiment": "qRT-PCR of osteogenic marker Ibsp in osteoblasts", "conditions": "5 days differentiation, siRNA 30 nM, plasmid 1 μg/mL, bongkrekic acid 40 μM, normalized to 18S rRNA, versus respective control", "experimental": "as §1, §2"}}}
{"molecule": "CO[C@H](C/C=C\\C=C\\CC/C=C/C[C@H](C)/C=C/C(=C\\C(=O)O)CC(=O)O)/C(C)=C\\C=C(/C)C(=O)O", "note": "[bongkrekic acid]", "values": [{"measurement": "formation of donut-shaped mitochondria (confocal images, FIGS. 1A to 1C)", "setting": "osteoblast mitochondria", "result": "increased compared to the control"}, {"measurement": "mitochondrial fission (confocal images, FIGS. 1A to 1C)", "setting": "osteoblast mitochondria", "result": "increased compared to the control"}, {"measurement": "mitochondrial fission (quantitative analysis, Zeiss Zen 3.1, FIGS. 1D and 1E)", "setting": "osteoblast mitochondria", "result": "significantly increased"}, {"measurement": "number of donut-shaped mitochondria (quantitative analysis, FIGS. 1D and 1E)", "setting": "osteoblast mitochondria", "result": "significantly increased"}, {"measurement": "degree of ALP staining (osteogenic activity)", "setting": "osteoblasts", "result": "stronger compared to the respective controls"}, {"measurement": "expression of Alp1 (qRT-PCR)", "setting": "Alp1", "result": "significantly increased"}, {"measurement": "expression of Ibsp (qRT-PCR)", "setting": "Ibsp", "result": "significantly increased"}]}
{"molecule": "siBax: siRNA of Bax (Bcl-2-associated X); Bioneer ID 12028-1, SEQ ID NO 5 and 6 (chain 1 GCUGCAGAGGAUGAUUGCUTT; chain 2 AGCAAUCAUCCUCUGCAGCTT; chemistry not given here)", "values": [{"measurement": "degree of ALP staining (osteogenic activity)", "setting": "osteoblasts", "result": "weaker compared to the respective controls"}]}
{"molecule": "siFis1: siRNA inhibiting expression of the Fis1 gene; Bioneer ID 66437-1, SEQ ID NO 3 and 4 (chain 1 CUGAUUGAUAAGGCCAUGAUU; chain 2 UCAUGGCCUUAUCAAUCAGUU; chemistry not given here)", "values": [{"measurement": "formation of donut-shaped mitochondria (confocal images, FIGS. 1A to 1C)", "setting": "osteoblast mitochondria", "result": "significantly reduced compared to the control"}, {"measurement": "mitochondrial fission (confocal images, FIGS. 1A to 1C)", "setting": "osteoblast mitochondria", "result": "significantly reduced compared to the control"}, {"measurement": "mitochondrial fission (quantitative analysis, Zeiss Zen 3.1, FIGS. 1D and 1E)", "setting": "osteoblast mitochondria", "result": "significantly reduced"}, {"measurement": "number of donut-shaped mitochondria (quantitative analysis, FIGS. 1D and 1E)", "setting": "osteoblast mitochondria", "result": "significantly reduced"}, {"measurement": "degree of ALP staining (osteogenic activity)", "setting": "osteoblasts", "result": "weaker compared to the respective controls"}, {"measurement": "expression of Alp1 (qRT-PCR)", "setting": "Alp1", "result": "significantly decreased"}, {"measurement": "expression of Ibsp (qRT-PCR)", "setting": "Ibsp", "result": "significantly decreased"}]}
{"molecule": "siOpa1: siRNA inhibiting expression of the Opa1 gene; Bioneer ID 74143-1, SEQ ID NO 1 and 2 (chain 1 GUGUUCACAACGAAACCAAUU; chain 2 UUGGUUUCGUUGUGAACACUU; chemistry not given here)", "values": [{"measurement": "formation of donut-shaped mitochondria (confocal images, FIGS. 1A to 1C)", "setting": "osteoblast mitochondria", "result": "increased compared to the control"}, {"measurement": "mitochondrial fission (confocal images, FIGS. 1A to 1C)", "setting": "osteoblast mitochondria", "result": "increased compared to the control"}, {"measurement": "mitochondrial fission (quantitative analysis, Zeiss Zen 3.1, FIGS. 1D and 1E)", "setting": "osteoblast mitochondria", "result": "significantly increased"}, {"measurement": "number of donut-shaped mitochondria (quantitative analysis, FIGS. 1D and 1E)", "setting": "osteoblast mitochondria", "result": "significantly increased"}, {"measurement": "degree of ALP staining (osteogenic activity)", "setting": "osteoblasts", "result": "stronger compared to the respective controls"}, {"measurement": "expression of Alp1 (qRT-PCR)", "setting": "Alp1", "result": "significantly increased"}, {"measurement": "expression of Ibsp (qRT-PCR)", "setting": "Ibsp", "result": "significantly increased"}]}
